# Measurements taken from article PMC9307114, “Discovery and SAR analysis of phenylbenzo[d][1,3]dioxole-based proprotein convertase subtilisin/kexin type 9 inhibitors” (Journal of Enzyme Inhibition and Medicinal Chemistry, 2022).
# What was measured:
# HepG2 cells = assay: MTT assay on HepG2 cells; format: cell-based; conditions: Homo sapiens, mean of three experiments, read-out: HepG2 percentage inhibitory rate
# PCSK9/LDLR PPI = PCSK9/LDLR PPI (Homo sapiens, UniProt Q8NBP7); assay: PCSK9-LDLR TR-FRET assay (PCSK9/LDLR PPI inhibitory screening); format: binding; conditions: for inhibition at 10 µM: mean of three experiments, read-out: PCSK9 percentage inhibitory rate
# PCSK9/LDLR PPI, sequence (Q8NBP7 153-692): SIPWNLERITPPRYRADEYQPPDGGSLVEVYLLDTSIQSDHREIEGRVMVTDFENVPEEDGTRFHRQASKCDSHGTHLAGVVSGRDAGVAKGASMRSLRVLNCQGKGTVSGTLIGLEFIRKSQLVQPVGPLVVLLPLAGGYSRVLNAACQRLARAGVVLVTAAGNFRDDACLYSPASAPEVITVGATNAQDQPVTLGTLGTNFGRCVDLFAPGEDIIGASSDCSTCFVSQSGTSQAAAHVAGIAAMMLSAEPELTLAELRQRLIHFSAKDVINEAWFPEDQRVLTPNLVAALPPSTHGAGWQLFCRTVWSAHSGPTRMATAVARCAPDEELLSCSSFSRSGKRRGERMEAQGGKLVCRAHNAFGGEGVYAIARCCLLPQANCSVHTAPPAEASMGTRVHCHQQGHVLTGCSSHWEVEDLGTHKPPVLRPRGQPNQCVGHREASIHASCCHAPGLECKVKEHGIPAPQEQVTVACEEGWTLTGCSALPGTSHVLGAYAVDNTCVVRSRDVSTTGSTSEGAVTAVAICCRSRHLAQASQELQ
# PCSK9/LDLR PPI, sequence (Q8NBP7 31-152 partner limits assumed): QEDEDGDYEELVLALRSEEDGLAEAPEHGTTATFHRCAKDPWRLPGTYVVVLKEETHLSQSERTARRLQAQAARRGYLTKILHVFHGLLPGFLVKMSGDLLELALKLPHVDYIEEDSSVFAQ
# Protocol: The PCSK9/LDLR time-resolved fluorescence resonance energy transfer (TR-FRET) assay was performed to evaluate the activity of synthesised compounds in inhibition of PCSK9-LDLR binding. The A series compounds were firstly synthesised for the PCSK9/LDLR PPI inhibitory test. […] Therefore, a group of A12 derivatives (B series) were synthesised with 4-chlorobenzyl substituted in the amino group and various substitutions introduced to the carboxylic group. […] To confirm whether the 4-chloromethyl group is essential for the PPI inhibitory activity, a new series of compounds (C series) were synthesised with the 4-chloromethyl group replaced by 4-methoxymethyl moiety. The inhibitory activity was observed, most likely resulting from the 4-methoxymethyl substitution (Table 3).
# The compounds were dissolved in 100% DMSO; then 2 µL of the dilution was added to a 20 µL of reaction to keep […] in all of reactions. The binding reaction was conducted at room temperature. The reaction mixture in assay buffer contains PCSK9, the indicated amount of the inhibitor, ligand LDLR, and the reaction dyes. The reaction mixture was incubated for 120 min before detection of the TR-FRET signal. Fluorescence signals for both the donor and acceptor dyes were measured using a Tecan Infinite M1000 plate reader. TR-FRET was recorded as the ratio of the fluorescence of the acceptor and the donor dyes (acceptor/donor). The TR-FRET data were analysed using Graphpad Prism software.
inhibition at 10 µM (PCSK9/LDLR PPI) [%],"IC50 (PCSK9/LDLR PPI; dose-dependent IC50 plot, Figure 3, read-out: PCSK9 IC50 (inhibition of PCSK9/LDLR PPI)) [µM]",SMILES,inhibition at 10 µM (HepG2 cells) [%]
25.5 ± 2.22,,"O=C(Nc1ccc(Br)cc1)c1ccc(-c2cc3c(cc2NC(=O)c2ccc(CCl)cc2)OCO3)cc1 [B2, N-(4-bromophenyl)-4-(6-(4-(chloromethyl)benzamido)benzo[d][1,3]dioxol-5-yl)benzamide]",15.6 ± 1.24
6.18 ± 0.08,,"COc1ccc(NC(=O)c2ccc(-c3cc4c(cc3NC(=O)c3ccc(CCl)cc3)OCO4)cc2)cc1 [B5, 4-(Chloromethyl)-N-(6-(4-((4-methoxyphenyl)carbamoyl)phenyl)benzo[d][1,3]dioxol-5-yl)benzamide]",7.22 ± 0.15
6.97 ± 0.43,,"CCOc1ccc(NC(=O)c2ccc(-c3cc4c(cc3NC(=O)c3ccc(CCl)cc3)OCO4)cc2)cc1 [B6, 4-(Chloromethyl)-N-(6-(4-((4-ethoxyphenyl)carbamoyl)phenyl)benzo[d][1,3]dioxol-5-yl)benzamide]",7.04 ± 0.27
16.3 ± 0.62,,"COc1ccc(NC(=O)c2ccc(-c3cc4c(cc3NC(=O)c3ccc(CCl)cc3)OCO4)cc2)cc1OC [B7, 4-(Chloromethyl)-N-(6-(4-((3,4-dimethoxyphenyl)carbamoyl)phenyl)benzo[d][1,3]dioxol-5-yl)benzamide]",5.45 ± 0.39
3.15 ± 0.02,,"Cc1ccc(NC(=O)c2ccc(-c3cc4c(cc3NC(=O)c3ccc(CCl)cc3)OCO4)cc2)cc1 [B8, 4-(Chloromethyl)-N-(6-(4-(p-tolylcarbamoyl)phenyl)benzo[d][1,3]dioxol-5-yl)benzamide]",3.35 ± 0.16
3.36 ± 0.23,,"CCc1ccc(NC(=O)c2ccc(-c3cc4c(cc3NC(=O)c3ccc(CCl)cc3)OCO4)cc2)cc1 [B9, 4-(Chloromethyl)-N-(6-(4-((4-ethylphenyl)carbamoyl)phenyl)benzo[d][1,3]dioxol-5-yl)benzamide]",6.36 ± 0.42
5.87 ± 0.01,,"CCCCCc1ccc(NC(=O)c2ccc(-c3cc4c(cc3NC(=O)c3ccc(CCl)cc3)OCO4)cc2)cc1 [B10, 4-(Chloromethyl)-N-(6-(4-((4-pentylphenyl)carbamoyl)phenyl)benzo[d][1,3]dioxol-5-yl)benzamide]",2.4 ± 0.19
6.92 ± 0.53,,"O=C(Nc1ccc(-c2ccccc2)cc1)c1ccc(-c2cc3c(cc2NC(=O)c2ccc(CCl)cc2)OCO3)cc1 [B11, N-([1,1′-biphenyl]-4-yl)-4-(6-(4-(chloromethyl)benzamido)benzo[d][1,3]dioxol-5-yl)benzamide]",3.26 ± 0.22
5.16 ± 0.2,,"O=C(Nc1ccc2c(c1)OCCO2)c1ccc(-c2cc3c(cc2NC(=O)c2ccc(CCl)cc2)OCO3)cc1 [B12, 4-(Chloromethyl)-N-(6-(4-((2,3-dihydrobenzo[b][1,4]dioxin-6-yl)carbamoyl)phenyl)benzo[d][1,3]dioxol-5-yl)benzamide]",5.76 ± 0.24
5.64 ± 0.04,,"O=C(Nc1cc2c(cc1-c1ccc(C(=O)N3CCN(c4ccccc4)CC3)cc1)OCO2)c1ccc(CCl)cc1 [B13, 4-(Chloromethyl)-N-(6-(4-(4-phenylpiperazine-1-carbonyl)phenyl)benzo[d][1,3]dioxol-5-yl)benzamide]",3.21 ± 0.26
7.22 ± 0.71,,"CCc1ccc(N2CCN(C(=O)c3ccc(-c4cc5c(cc4NC(=O)c4ccc(CCl)cc4)OCO5)cc3)CC2)cc1 [B15, 4-(Chloromethyl)-N-(6-(4-(4-(4-ethylphenyl)piperazine-1-carbonyl)phenyl)benzo[d][1,3]dioxol-5-yl)benzamide]",8.91 ± 0.62
7.94 ± 0.03,,"O=C(Nc1cc2c(cc1-c1ccc(C(=O)N3CCN(c4ccc(Cl)cc4)CC3)cc1)OCO2)c1ccc(CCl)cc1 [B16, 4-(Chloromethyl)-N-(6-(4-(4-(4-chlorophenyl)piperazine-1-carbonyl)phenyl)benzo[d][1,3]dioxol-5-yl)benzamide]",10.2 ± 0.91
,12.9,"O=C(Nc1cccc(-c2nc3ccccc3o2)c1)c1ccc(NC(=O)c2cc3ccccc3o2)cc1 [SBC-115337, reference compound]",

# More lines, now with the values behind:
SMILES,inhibition at 10 µM (PCSK9/LDLR PPI) [%],"IC50 (PCSK9/LDLR PPI; dose-dependent IC50 plot, Figure 3, read-out: PCSK9 IC50 (inhibition of PCSK9/LDLR PPI)) [µM]",inhibition at 10 µM (HepG2 cells) [%]
"COc1cc(NC(=O)c2ccc(-c3cc4c(cc3NC(=O)c3ccc(F)cc3)OCO4)cc2)cc(OC)c1OC [A1, 4-Fluoro-N-(6-(4-((3,4,5-trimethoxyphenyl)carbamoyl)phenyl)benzo[d][1,3]dioxol-5-yl)benzamide]",27.2 ± 1.85,,12.5 ± 1.06
"COc1cc(NC(=O)c2ccc(-c3cc4c(cc3NC(=O)c3ccc(C(F)(F)F)cc3)OCO4)cc2)cc(OC)c1OC [A2, 4-(Trifluoromethyl)-N-(6-(4-((3,4,5-trimethoxyphenyl)carbamoyl)phenyl)benzo[d][1,3]dioxol-5-yl)benzamide]",23.1 ± 2.17,,16.4 ± 1.55
"COc1cc(NC(=O)c2ccc(-c3cc4c(cc3NC(=O)c3ccccc3)OCO4)cc2)cc(OC)c1OC [A3, 4-(6-Benzamidobenzo[d][1,3]dioxol-5-yl)-N-(3,4,5-trimethoxyphenyl)benzamide]",5.06 ± 0.09,,8.78 ± 0.37
"COc1cc(NC(=O)c2ccc(-c3cc4c(cc3NC(=O)c3ccccc3C(F)(F)F)OCO4)cc2)cc(OC)c1OC [A4, 2-(Trifluoromethyl)-N-(6-(4-((3,4,5-trimethoxyphenyl)carbamoyl)phenyl)benzo[d][1,3]dioxol-5-yl)benzamide]",5.28 ± 0.4,,7.93 ± 1.04
"COc1cc(NC(=O)c2ccc(-c3cc4c(cc3NC(=O)c3ccccc3F)OCO4)cc2)cc(OC)c1OC [A5, 2-Fluoro-N-(6-(4-((3,4,5-trimethoxyphenyl)carbamoyl)phenyl)benzo[d][1,3]dioxol-5-yl)benzamide]",4.77 ± 0.31,,5.96 ± 0.66
"COc1ccc(C(=O)Nc2cc3c(cc2-c2ccc(C(=O)Nc4cc(OC)c(OC)c(OC)c4)cc2)OCO3)cc1 [A6, 4-Methoxy-N-(6-(4-((3,4,5-trimethoxyphenyl)carbamoyl)phenyl)benzo[d][1,3]dioxol-5-yl)benzamide]",5.92 ± 0.52,,5.9 ± 0.42
"COc1cc(NC(=O)c2ccc(-c3cc4c(cc3NC(=O)c3ccccc3Cl)OCO4)cc2)cc(OC)c1OC [A7, 2-Chloro-N-(6-(4-((3,4,5-trimethoxyphenyl)carbamoyl)phenyl)benzo[d][1,3]dioxol-5-yl)benzamide]",5.16 ± 0.31,,12.4 ± 1.07
"COc1cc(NC(=O)c2ccc(-c3cc4c(cc3NC(=O)c3cccc(Br)c3)OCO4)cc2)cc(OC)c1OC [A8, 3-Bromo-N-(6-(4-((3,4,5-trimethoxyphenyl)carbamoyl)phenyl)benzo[d][1,3]dioxol-5-yl)benzamide]",5.88 ± 0.12,,3.66 ± 0.24
"COc1cc(NC(=O)c2ccc(-c3cc4c(cc3NC(=O)c3cccc(F)c3)OCO4)cc2)cc(OC)c1OC [A9, 3-Fluoro-N-(6-(4-((3,4,5-trimethoxyphenyl)carbamoyl)phenyl)benzo[d][1,3]dioxol-5-yl)benzamide]",22.5 ± 1.36,,11.7 ± 0.88
"COc1ccccc1C(=O)Nc1cc2c(cc1-c1ccc(C(=O)Nc3cc(OC)c(OC)c(OC)c3)cc1)OCO2 [A10, 2-Methoxy-N-(6-(4-((3,4,5-trimethoxyphenyl)carbamoyl)phenyl)benzo[d][1,3]dioxol-5-yl)benzamide]",3.05 ± 0.05,,4.27 ± 0.16
"COc1cc(NC(=O)c2ccc(-c3cc4c(cc3NC(=O)c3cccc(C(F)(F)F)c3)OCO4)cc2)cc(OC)c1OC [A11, 3-(Trifluoromethyl)-N-(6-(4-((3,4,5-trimethoxyphenyl)carbamoyl)phenyl)benzo[d][1,3]dioxol-5-yl)benzamide]",35.2 ± 3.15,,7.97 ± 0.08
"COc1cc(NC(=O)c2ccc(-c3cc4c(cc3NC(=O)c3ccccc3C)OCO4)cc2)cc(OC)c1OC [A13, 2-Methyl-N-(6-(4-((3,4,5-trimethoxyphenyl)carbamoyl)phenyl)benzo[d][1,3]dioxol-5-yl)benzamide]",7.65 ± 0.01,,5.89 ± 0.27
"CCc1ccc(C(=O)Nc2cc3c(cc2-c2ccc(C(=O)Nc4cc(OC)c(OC)c(OC)c4)cc2)OCO3)cc1 [A14, 4-Ethyl-N-(6-(4-((3,4,5-trimethoxyphenyl)carbamoyl)phenyl)benzo[d][1,3]dioxol-5-yl)benzamide]",7.83 ± 0.26,,5.21 ± 0.16
"COc1cc(NC(=O)c2ccc(-c3cc4c(cc3NC(=O)c3cc(F)cc(F)c3)OCO4)cc2)cc(OC)c1OC [A15, 3,5-Difluoro-N-(6-(4-((3,4,5-trimethoxyphenyl)carbamoyl)phenyl)benzo[d][1,3]dioxol-5-yl)benzamide]",4.76 ± 0.37,,4.63 ± 0.22
"COc1cc(NC(=O)c2ccc(-c3cc4c(cc3NC(=O)c3cc(F)ccc3F)OCO4)cc2)cc(OC)c1OC [A16, 2,5-Difluoro-N-(6-(4-((3,4,5-trimethoxyphenyl)carbamoyl)phenyl)benzo[d][1,3]dioxol-5-yl)benzamide]",4.22 ± 0.25,,3.33 ± 0.23
"COc1cc(NC(=O)c2ccc(-c3cc4c(cc3NC(=O)c3ccc(C#N)cc3)OCO4)cc2)cc(OC)c1OC [A17, 4-Cyano-N-(6-(4-((3,4,5-trimethoxyphenyl)carbamoyl)phenyl)benzo[d][1,3]dioxol-5-yl)benzamide]",7.91 ± 0.71,,3.84 ± 0.11
